Source: PMC6582486, “Stapled EGFR peptide reduces inflammatory breast cancer and inhibits additional HER-driven models of cancer” (Journal of Translational Medicine, 2019)
Where a SMILES comes first, the peptide text is derived from it. Bridges are numbered along the chain shown (N, C = ends). [ ]: non-standard residue; d: D form. R8 = C=CCCCCCC[C@@](C)(N)C(=O)O; S5 = C=CCCC[C@](C)(N)C(=O)O

Assays:
[1] = system: SUM149 inflammatory breast cancer cells; format: cell-based; settings: SUM149, 10 µM, 3 days
Protocol: (§1) 1000–3000 cells were plated in 96-well plates (Falcon; Corning, NY) and allowed to adhere for 24–48 h prior to therapeutic introduction. Compounds were added and incubated on cells for 3 days in serum-containing media, followed by 2 h treatment with MTT (Sigma M5655) with the resulting formazan solubilized in DMSO. Absorbance was read at 540 nm by plate reader (uQuant, Bio-Tek Instruments). P-values were calculated from a one-way ANOVA.
Fig. 4 SAH5-EJ1 effectively treats models of basal and inflammatory breast cancers while increasing survival. a Changes in tumor burden in breast cancer PDX mouse model TM01278 with various concentrations of intravenous SAH5-EJ1. Control represents water as a vehicle control. *p < 0.05 (Control vs 1 µg/g); **p < 0.01 (Control vs 1 µg/g and vs 10 µg/g). N = 6 for each condition. b Kaplan–Meier curve of breast PDX mouse model treated with control (blue) or either 1 or 10 µg/g SAH5-EJ1 (green and red, respectively) (red asterisks indicate time point at which mice could no longer receive injections due to site toxicity). Data shown represent mean. N = 6 for all groups. c Cell viability assay performed in SUM149 cells over 3 days comparing treatment with Sapitinib (blue) to SAH5-EJ1 (red) and SAH5-CP (grey). Solid lines represent 24 h; dashed lines represent 72 h. Data shown represent mean ± percent difference of assays performed in triplicate. d Kaplan–Meier curve of inflammatory breast cancer SUM149-injected mouse model treated with injected control (water) (blue) or either 0.5 or 5 µg/g SAH5-EJ1 (green and red, respectively). Data shown represent mean. N = 8 for all groups. e Changes in tumor burden in SUM149-generated tumors with various doses of SAH5-EJ1. Control represents water (blue). Arrow indicates transition from intravenous (IV) SAH5-EJ1 injections to intraperitoneal (IP) on day 66. **p < 0.01 (Control vs 0.5 µg/g and vs 5 µg/g). Data shown represent mean ± standard deviation. N = 8 for all groups. f Images of mouse tumors taken on Day 116. Arrowheads indicate tumor site. Representative images selected. […]

[2] = system: EGFR T790M mutated H1975 lung adenocarcinoma cells; assay: Cell viability assay (MTT), H1975; format: cell-based; settings: H1975 (HER1 T790M), 10 µM, 72 h
Protocol: as §1
Fig. 3 SAH5-EJ1 inhibits growth and prolongs survival in PDX models of lung cancer. a, b Cell viability assays performed in A549 or EGFR T790M mutated H1975 lung adenocarcinoma cells over 3 days comparing treatment with Sapitinib (blue lines) to SAH5-EJ1 (red lines). Solid lines represent 24 h; dashed lines represent 72 h. Data shown represent mean ± percent difference of assays performed in quadruplicate. c Reduction in tumor burden in Erlotinib-resistant lung cancer PDX mouse model TM00784 with various doses of intravenous SAH5-EJ1. Control represents water as a vehicle control. *p < 0.05 (Control vs 1 µg/g); **p < 0.01 (Control vs 1 µg/g and vs 10 µg/g). d Kaplan–Meier curve of lung PDX mouse model treated with control (blue line) or either 1 or 10 µg/g SAH5-EJ1 (green line and red line, respectively). Data shown represent mean. N = 6 for all groups

[3] = 28-day toxicity study: treatment observation frequency; format: in vivo, CD-1 mice; settings: for Treatment observation: Animals with Signs: 28 days
Protocol: Toxicology was performed by IITRI. The study was conducted in compliance with the US Food and Drug Administration (FDA) good laboratory practice (GLP) Regulations (Code of Federal Regulations Title 21 Part 58) to evaluate the toxicokinetics, local tolerability, immunogenicity, and potential toxicity of SAH5-EJ1 following three times per week intravenous (IV) dosing for 28 days in mice. Male and female CD-1 IGS [Crl:CD1(ICR)] mice (135 per sex) were received from Wilmington, MA-based Charles River Laboratories, Inc.’s Kingston facility (Stone Ridge, NY).

[4] = system: grade 3 invasive ductal breast carcinoma PDX TM01278; assay: Breast cancer PDX mouse model TM01278; format: in vivo
Source text: The following PDX mouse models were generated by Jackson Labs (Sacramento, CA): Breast TM01278; Grade 3 invasive ductal carcinoma, primary malignancy; EGFR inactivating R521K mutation; ERBB3 G1288A mutation in kinase domain with unknown effects on activity; increased EGFR/ERBB2/ERBB3. Lung TM00784; Grade 3 lung adenocarcinoma, primary malignancy; EGFR activating L858R mutation; increased EGFR, decreased ERBB2/ERBB3/ERBB4. All animals were maintained as outlined by University of Arizona Institutional Animal Care and Use Committee (IACUC) by the Experimental Mouse Shared Resource (EMSR).
Fig. 4 SAH5-EJ1 effectively treats models of basal and inflammatory breast cancers while increasing survival. a Changes in tumor burden in breast cancer PDX mouse model TM01278 with various concentrations of intravenous SAH5-EJ1. Control represents water as a vehicle control. *p < 0.05 (Control vs 1 µg/g); **p < 0.01 (Control vs 1 µg/g and vs 10 µg/g). N = 6 for each condition. b Kaplan–Meier curve of breast PDX mouse model treated with control (blue) or either 1 or 10 µg/g SAH5-EJ1 (green and red, respectively) (red asterisks indicate time point at which mice could no longer receive injections due to site toxicity). Data shown represent mean. N = 6 for all groups. c Cell viability assay performed in SUM149 cells over 3 days comparing treatment with Sapitinib (blue) to SAH5-EJ1 (red) and SAH5-CP (grey). […]

CC[C@H](C)[C@H](NC(=O)[C@H](Cc1c[nH]cn1)NC(=O)[C@H](CCCNC(=N)N)NC(=O)[C@H](CCCNC(=N)N)NC(=O)[C@H](CCCNC(=N)N)NC(=O)[C@H](CCSC)NC(=O)[C@H](Cc1ccccc1)NC(=O)[C@H](C)NC(=O)[C@H](CCCNC(=N)N)NC(=O)[C@H](C)NC(=O)[C@H](CCC(N)=O)NC(=O)[C@H](CCCNC(=N)N)NC(=O)[C@H](C)NC(=O)[C@H](C)NC(=O)[C@H](C)NC(=O)[C@H](CCCNC(=N)N)NC(=O)[C@H](C)NC(=O)[C@@H](N)Cc1ccc(O)cc1)C(=O)N[C@H](C(=O)N[C@@H](CCCNC(=N)N)C(=O)N[C@@H](CCCCN)C(=O)N[C@@H](CCCNC(=N)N)C(=O)N[C@]1(C)CCCCCCC=CCCC[C@@](C)(C(=O)N[C@@H](CCCNC(=N)N)C(=O)N[C@@H](CCC(=O)O)C(N)=O)NC(=O)[C@H](CCC(N)=O)NC(=O)[C@H](CC(C)C)NC(=O)[C@H](CC(C)C)NC(=O)[C@H](CCCNC(=N)N)NC(=O)[C@H](CCCNC(=N)N)NC(=O)[C@H](CC(C)C)NC1=O)C(C)C [SAH5-EJ1] (H-YARAAARQARAFMRRRHIVRKR[R8]LRRLLQ[S5]RE-NH2; staple 23-30)
cell viability [1]: zero | cell death [2]: 100% | Treatment observation: Discolored Urine (animals) ([3]; female, 5 mg/kg, 10 examined): 0 | Treatment observation: General (animals) ([3]; female, 5 mg/kg, 10 examined): 0 | Treatment observation: Hunched Posture (animals) ([3]; female, 5 mg/kg, 10 examined): 0 | Treatment observation: Hypoactive (animals) ([3]; female, 5 mg/kg, 10 examined): 0 | Treatment observation: Normal (animals) ([3]; female, 5 mg/kg, 10 examined): 10 | Treatment observation: Animals with Signs ([3]; female, 5 mg/kg, 10 examined): 0 | Treatment observation: Discolored Urine (animals) ([3]; female, 10 mg/kg, 10 examined): 0 | Treatment observation: General (animals) ([3]; female, 10 mg/kg, 10 examined): 0 | Treatment observation: Hunched Posture (animals) ([3]; female, 10 mg/kg, 10 examined): 0 | Treatment observation: Hypoactive (animals) ([3]; female, 10 mg/kg, 10 examined): 0 | Treatment observation: Normal (animals) ([3]; female, 10 mg/kg, 10 examined): 10 | Treatment observation: Animals with Signs ([3]; female, 10 mg/kg, 10 examined): 0 | Treatment observation: Discolored Urine (animals) ([3]; female, 15 mg/kg, 15 examined): 1 | Treatment observation: General (animals) ([3]; female, 15 mg/kg, 15 examined): 2 | Treatment observation: Hunched Posture (animals) ([3]; female, 15 mg/kg, 15 examined): 1 | Treatment observation: Hypoactive (animals) ([3]; female, 15 mg/kg, 15 examined): 2 | Treatment observation: Normal (animals) ([3]; female, 15 mg/kg, 15 examined): 15 | Treatment observation: Animals with Signs ([3]; female, 15 mg/kg, 15 examined): 2 | Treatment observation: Discolored Urine (animals) ([3]; male, 5 mg/kg, 10 examined): 0 | Treatment observation: General (animals) ([3]; male, 5 mg/kg, 10 examined): 0 | Treatment observation: Normal (animals) ([3]; male, 5 mg/kg, 10 examined): 10 | Treatment observation: Rough Coat (animals) ([3]; male, 5 mg/kg, 10 examined): 0 | Treatment observation: Animals with Signs ([3]; male, 5 mg/kg, 10 examined): 0 | Treatment observation: Discolored Urine (animals) ([3]; male, 10 mg/kg, 10 examined): 0 | Treatment observation: General (animals) ([3]; male, 10 mg/kg, 10 examined): 0 | Treatment observation: Normal (animals) ([3]; male, 10 mg/kg, 10 examined): 10 | Treatment observation: Rough Coat (animals) ([3]; male, 10 mg/kg, 10 examined): 0 | Treatment observation: Animals with Signs ([3]; male, 10 mg/kg, 10 examined): 0 | Treatment observation: Discolored Urine (animals) ([3]; male, 15 mg/kg, 15 examined): 1 | Treatment observation: General (animals) ([3]; male, 15 mg/kg, 15 examined): 2 | Treatment observation: Normal (animals) ([3]; male, 15 mg/kg, 15 examined): 15 | Treatment observation: Rough Coat (animals) ([3]; male, 15 mg/kg, 15 examined): 2 | Treatment observation: Animals with Signs ([3]; male, 15 mg/kg, 15 examined): 2 | increase in survival ([4]; 1 µg/g IV vs control, N = 6): 2.5 fold | time on study at which all remaining mice were sacrificed due to toxicity at the injection site ([4]; 10 µg/g IV): 41 days
